Test results taken from patent US8809347B2, “Bicyclic aryl and bicyclic heteroaryl substituted triazoles useful as AXL inhibitors” (Rigel Pharmaceuticals, Inc., priority 2006, dated 2014).

Molecular target: T1, Axl (Homo sapiens, UniProt P30530)
T1 construct: Cells: Hela cells; endogenous in cells; host or cells: HeLa cells
T1 sequence (P30530 26-894): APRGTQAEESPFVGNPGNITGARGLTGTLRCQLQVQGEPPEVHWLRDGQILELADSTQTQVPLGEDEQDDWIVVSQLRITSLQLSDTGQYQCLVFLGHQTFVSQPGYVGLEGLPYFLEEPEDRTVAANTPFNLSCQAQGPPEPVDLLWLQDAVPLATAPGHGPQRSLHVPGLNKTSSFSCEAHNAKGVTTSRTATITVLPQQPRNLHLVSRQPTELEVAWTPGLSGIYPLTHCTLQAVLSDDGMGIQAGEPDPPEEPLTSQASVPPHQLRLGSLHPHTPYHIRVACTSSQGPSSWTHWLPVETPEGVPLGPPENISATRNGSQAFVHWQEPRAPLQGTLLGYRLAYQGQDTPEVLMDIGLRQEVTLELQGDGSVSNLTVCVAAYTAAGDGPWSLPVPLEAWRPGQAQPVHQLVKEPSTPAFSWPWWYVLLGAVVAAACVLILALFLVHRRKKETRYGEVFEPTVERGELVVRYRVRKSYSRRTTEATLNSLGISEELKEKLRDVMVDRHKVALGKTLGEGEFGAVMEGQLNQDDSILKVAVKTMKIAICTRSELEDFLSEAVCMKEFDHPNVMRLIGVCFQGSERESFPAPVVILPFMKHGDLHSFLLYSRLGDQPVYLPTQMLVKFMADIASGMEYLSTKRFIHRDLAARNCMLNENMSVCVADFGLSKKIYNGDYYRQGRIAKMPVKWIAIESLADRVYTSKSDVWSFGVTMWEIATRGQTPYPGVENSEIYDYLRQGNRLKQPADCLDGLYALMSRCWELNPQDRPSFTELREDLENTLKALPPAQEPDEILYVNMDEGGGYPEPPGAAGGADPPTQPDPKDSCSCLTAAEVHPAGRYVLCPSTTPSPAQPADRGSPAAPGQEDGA
Assay: Phospho-Akt in-cell Western assay (inhibition of Axl activity)
Assay type: cell-based
Details: Hela cells; 1 hr pre-treatment; stimulation by Axl-antibody cross-linking; phospho-Akt chemiluminescence normalized to relative cell number
Description: The compounds of the invention were tested in the following assay for their ability to inhibit Axl activity.
Phospho-Akt in-Cell Western Assay
• Cell culture plate: 96 well assay plate (Corning 3610), white, clear bottom, tissue-culture treated. • Cells: Hela cells. • Starvation medium: For Axl stimulation: 0.5% FCS (fetal calf serum) in DMEM, plus Axl/Fc (extracellular domain of AXL fused to immunoglobulin Fc region) (R&D, 154-AL) 500 ng/mL. • For EGF (epidermal growth factor) stimulation: 0.5% FCS in DMEM (Dulbecco's modified Eagles medium). • Poly-L-Lysine 0.01% solution (the working solution): […], dilute In PBS (phosphate buffered saline). • Axl antibody cross-linking: • 1st: Mouse anti-Axl (R&D, MAB154). • 2nd: Biotin-SP-conjugated AffiniPure goat anti-mouse IgG (H+ L) (Jackson ImmunoResearch #115-065-003). • Fixing buffer: 4% formaldehyde in PBS. • Wash buffer: 0.1% TritonX-100 in PBS. • Quenching buffer: 3% H2O2, 0.1% Azide in wash buffer, Azide and hydrogen peroxide (H2O2) are added fresh. • Blocking buffer: 5% BSA in TBST (tris buffered saline plus 0.1% Tween 20). • Primary antibody: Rabbit anti-human Phospho-Akt antibody (Cell Signaling 9271): 1×250 diluted in blocking buffer. • Secondary antibody: HRP (horse radish peroxidase)-conjugated Goat anti-Rabbit secondary, stock solution: Jackson ImmunoResearch (Goat anti-Rabbit HRP, #111-035-144) 1:1 diluted in glycerol, store at −20° C. The working solution: 1×2000 dilution of stock in blocking buffer. • Chemiluminescent working solution (Pierce, 37030): SuperSignal ELISA (enzyme linked immunosorbant assay) Pico Chemiluminescent substrate. • Crystal Violet solution: Stock: 2.5% Crystal violet in methanol, filtered and kept at ambient temperature. The working solution: dilute the stock 1:20 with PBS immediately before use. • 10% SDS: working solution: 5% SDS (sodium dodecylsulfate), diluted in PBS Methods: Day 1:
A 96 well TC (tissue culture treated) plate was coated with 10 μg/mL poly-L-Lysine at 37° C. for 30 min, washed twice with PBS, and air-dried for 5 minutes before cells were added. Hela cells were seeded at 10,000 cells/well and the cells were starved in 100 μL starvation medium containing Axl/Fc for 24 hrs.
The cells were pre-treated with test compounds by adding 100 μL of 2× test compound to the starvation medium on the cells. The cells were incubated at 37° C. for 1 hr before stimulation.
The cells were stimulated by Axl-antibody cross-linking as follows: A 5× 1st/2nd Axl antibody mixture was made (37.5 μg/mL 1st/100 μg/mL 2nd) in starvation medium and nutated at 4° C. with thorough mixing for 1-2 hours for clustering. The resulting mix was warmed to 37° C. 50 μL of 5× Axl 1st/2nd of antibody cluster was added to the cells and the cells were incubated at 37° C. for 5 min.
After 5 minutes stimulation, the plate was flicked to remove medium and the plate was tapped onto paper towels. Formaldehyde (4.0% in PBS, 100 μL) was added to fix the cells and the cells were incubated at ambient temperature for 20 min without shaking.
The cells were washed with a plate washer buffer to remove the formaldehyde solution. The plate was flicked to removed excess wash buffer and tapped onto paper towels. Quenching buffer (100 μL) was added to each well and the cells were incubated at ambient temperature for 20 minutes without shaking.
The cells were washed with a plate washer buffer to remove the quenching buffer. Blocking buffer (100 μL) was added and the cells were incubated at ambient temperature for at least an hour with gentle shaking.
The cells were washed with a plate washer buffer and diluted primary antibody (50 μL) was added to each well (blocking buffer was added to the negative control wells instead). The plates were incubated overnight at 4° C. with gentle shaking.
The wash buffer was removed, diluted secondary antibody (100 μL) was added, and the cells were incubated at ambient temperature for 1 hour with gentle shaking. […]

Compound	IC50 [nM]
Nc1nc(Nc2ccc(OCCN3CCCC3)cc2)nn1-c1ncc2c(n1)CCCCCC2 [Compound 1, 1-(5,6,7,8,9,10-hexahydrocycloocta[d]pyrimidin-2-yl)-N^3-(4-(2-(pyrrolidin-1-yl)ethoxy)phenyl)-1H-1,2,4-triazole-3,5-diamine]	< 1000
CN1CCN(c2ccc(Nc3nc(N)n(-c4ncc5c(n4)CCCCCC5)n3)cc2)CC1 [Compound 2, 1-(5,6,7,8,9,10-hexahydrocycloocta[d]pyrimidin-2-yl)-N^3-(4-(4-methylpiperazin-1-yl)phenyl)-1H-1,2,4-triazole-3,5-diamine]	< 1000
Nc1nc(Nc2ccc(N3CCN(C4CC5CCC4C5)CC3)cc2)nn1-c1ncc2c(n1)CCCCCC2 (stereo not drawn) [Compound 3, N^3-(4-(4-(bicyclo[2.2.1]heptan-2-yl)piperazin-1-yl)phenyl)-1-(5,6,7,8,9,10-hexahydrocycloocta[d]pyrimidin-2-yl)-1H-1,2,4-triazole-3,5-diamine]	< 1000
CN1CCCN(c2ccc(Nc3nc(N)n(-c4ncc5c(n4)CCCCCC5)n3)cc2F)CC1 [Compound 4, N^3-(3-fluoro-4-(4-methyl-1,4-diazepan-1-yl)phenyl)-1-(5,6,7,8,9,10-hexahydrocycloocta[d]pyrimidin-2-yl)-1H-1,2,4-triazole-3,5-diamine]	< 1000
Nc1nc(Nc2ccc(N3CCN(C4CCCCC4)CC3)cc2)nn1-c1ncc2c(n1)CCCCCC2 [Compound 5, N^3-(4-(4-cyclohexylpiperazin-1-yl)phenyl)-1-(5,6,7,8,9,10-hexahydrocycloocta[d]pyrimidin-2-yl)-1H-1,2,4-triazole-3,5-diamine]	< 1000
CN(C)[C@@H]1CCN(c2ccc(Nc3nc(N)n(-c4ncc5c(n4)CCCCCC5)n3)cc2)C1 [Compound 6, (R)—N^3-(4-(3-(dimethylamino)pyrrolidin-1-yl)phenyl)-1-(5,6,7,8,9,10-hexahydrocycloocta[d]pyrimidin-2-yl)-1H-1,2,4-triazole-3,5-diamine]	1000 to 10000
CN(C)[C@H]1CCN(c2ccc(Nc3nc(N)n(-c4ncc5c(n4)CCCCCC5)n3)cc2)C1 [Compound 7, (S)—N^3-(4-(3-(dimethylamino)pyrrolidin-1-yl)phenyl)-1-(5,6,7,8,9,10-hexahydrocycloocta[d]pyrimidin-2-yl)-1H-1,2,4-triazole-3,5-diamine]	1000 to 10000
Nc1nc(Nc2ccc(N3CCN(C4CCCCC4)CC3)c(Cl)c2)nn1-c1ncc2c(n1)CCCCCC2 [Compound 8, N^3-(3-chloro-4-(4-cyclohexylpiperazin-1-yl)phenyl)-1-(5,6,7,8,9,10-hexahydrocycloocta[d]pyrimidin-2-yl)-1H-1,2,4-triazole-3,5-diamine]	< 1000
CN1CCN(Cc2ccc(Nc3nc(N)n(-c4ncc5c(n4)CCCCCC5)n3)cc2)CC1 [Compound 9, 1-(5,6,7,8,9,10-hexahydrocycloocta[d]pyrimidin-2-yl)-N^3-(4-((4-methylpiperazin-1-yl)methyl)phenyl)-1H-1,2,4-triazole-3,5-diamine]	1000 to 10000
Nc1nc(Nc2ccc(N3CCC(N4CCCC4)CC3)c(F)c2)nn1-c1ncc2c(n1)CCCCCC2 [Compound 10, N^3-(3-fluoro-4-(4-(pyrrolidin-1-yl)piperidin-1-yl)phenyl)-1-(5,6,7,8,9,10-hexahydrocycloocta[d]pyrimidin-2-yl)-1H-1,2,4-triazole-3,5-diamine]	< 1000
CN1CCc2ccc(Nc3nc(N)n(-c4ncc5c(n4)CCCCCC5)n3)cc2C1 [Compound 12, 1-(5,6,7,8,9,10-hexahydrocycloocta[d]pyrimidin-2-yl)-N^3-(2-methyl-1,2,3,4-tetrahydroisoquinolin-7-yl)-1H-1,2,4-triazole-3,5-diamine]	> 20000
Nc1nc(Nc2ccc(N3CCN(c4ccc(F)cc4)CC3)cc2)nn1-c1ncc2c(n1)CCCCCC2 [Compound 13, N^3-(4-(4-(4-fluorophenyl)piperazin-1-yl)phenyl)-1-(5,6,7,8,9,10-hexahydrocycloocta[d]pyrimidin-2-yl)-1H-1,2,4-triazole-3,5-diamine]	> 20000
CCOC(=O)N1CCN(c2ccc(Nc3nc(N)n(-c4ncc5c(n4)CCCCCC5)n3)cc2F)CC1 [Compound 14, ethyl 4-(4-(5-amino-1-(5,6,7,8,9,10-hexahydrocycloocta[d]pyrimidin-2-yl)-1H-1,2,4-triazol-3-ylamino)-2-fluorophenyl)piperazine-1-carboxylate]	1000 to 10000
CC(C)(COc1ccc(Nc2nc(N)n(-c3ncc4c(n3)CCCCCC4)n2)cc1)N1CCCC1 [Compound 15, 1-(5,6,7,8,9,10-hexahydrocycloocta[d]pyrimidin-2-yl)-N^3-(4-(2-methyl-2-(pyrrolidin-1-yl)propoxy)phenyl)-1H-1,2,4-triazole-3,5-diamine]	< 1000
Nc1nc(Nc2ccc(N3CCN(C4CCCCC4)CC3)cc2)nn1-c1cc2c(nn1)CCCCCC2 [Compound 16, N^3-(4-(4-cyclohexylpiperazin-1-yl)phenyl)-1-(5,6,7,8,9,10-hexahydrocycloocta[c]pyridazin-3-yl)-1H-1,2,4-triazole-3,5-diamine]	< 1000
Nc1nc(Nc2ccc(N3CCC(N4CCCC4)CC3)c(F)c2)nn1-c1cc2c(nn1)CCCCCC2 [Compound 17, N^3-(3-fluoro-4-(4-(pyrrolidin-1-yl)piperidin-1-yl)phenyl)-1-(5,6,7,8,9,10-hexahydrocycloocta[c]pyridazin-3-yl)-1H-1,2,4-triazole-3,5-diamine]	< 1000
Nc1nc(Nc2ccc(OCCN3CCCC3)cc2)nn1-c1cc2c(nn1)CCCCCC2 [Compound 18, 1-(5,6,7,8,9,10-hexahydrocycloocta[c]pyridazin-3-yl)-N^3-(4-(2-(pyrrolidin-1-yl)ethoxy)phenyl)-1H-1,2,4-triazole-3,5-diamine]	< 1000
CS(=O)(=O)N1CCN(c2ccc(Nc3nc(N)n(-c4ncc5c(n4)CCCCCC5)n3)cc2F)CC1 [Compound 19, N^3-(3-fluoro-4-(4-(methylsulfonyl)piperazin-1-yl)phenyl)-1-(5,6,7,8,9,10-hexahydrocycloocta[d]pyrimidin-2-yl)-1H-1,2,4-triazole-3,5-diamine]	1000 to 10000
